# Source: US7396939B2, “3-cyclopropyl-4-(3-amino-2-methylbenzoyl)pyrazoles and their use as herbicides” (Bayer CropScience GmbH, priority 2004, dated 2008)
# Like-named read-outs stand apart in the source and are kept apart here.
# What was measured:
# Format in all cases: in vivo
# [1] = tested on: Digitaria sanguinalis (DIGSA); test: Post-emergence action against harmful plants; conditions: post-emergence application, 80 g of a.i./ha, Comparative Table 1
# Protocol: (§1) Seeds of monocotyledonous and dicotyledonous harmful plants and seeds of corn, soybean and wheat are placed into sandy loam in cardboard pots, covered with soil and grown in the greenhouse under good growth conditions. Two to three weeks after sowing the harmful plants and the crop plants are treated in the three-leaf stage. The compounds according to the invention and the prior-art compounds, formulated as wettable powders or emulsion concentrates, are sprayed onto the green plant parts at an application rate of 600 to 800 l of water/ha (converted) in one of the dosages given in tables 1 to 10. After the test plants have remained in the greenhouse under optimum growth conditions for 3 to 4 weeks, the effect of the compounds is rated in comparison to compounds disclosed in the prior art.
# Viola tricolor (VIOTR) = test: Post-emergence action against harmful plants; conditions: post-emergence application, 80 g of a.i./ha, Comparative Table 1
# Protocol: as §1
# [2] = tested on: Echinochloa crus galli (ECHCG); test: Post-emergence action against harmful plants; conditions: post-emergence application
# Protocol: as §1
# [3] = tested on: Matricaria inodora (MATIN); test: Post-emergence action against harmful plants; conditions: for pest or weed control at 80 g/ha / pest or weed control at 320 g/ha: Tripleurospermum inodorum, read-out: Herbicidal action MATIN; for pest or weed control at 320 g/ha / Herbicidal action MATIN: 320 g of a.i./ha; for Herbicidal action MATIN: Comparative Table 10
# Protocol: as §1
# Zea mays (corn) (ZEAMX) [4] = test: Post-emergence damage of crop plants; conditions: post-emergence application
# Protocol: as §1
# Veronica persica (VERPE) = test: Post-emergence action against harmful plants; conditions: post-emergence application
# Protocol: as §1
# Galium aparine (GALAP) [5] = test: Post-emergence action against harmful plants; conditions: post-emergence application
# Protocol: as §1
# [6] = tested on: Glycine max (soybean) (GLXMA); test: Post-emergence damage of crop plants; conditions: post-emergence application
# Protocol: as §1
# [7] = tested on: Oryza sativa (rice) (ORYSA); test: Damage of rice under paddy rice conditions; conditions: post-emergence application
# Protocol: (§2) Rice plants and harmful plants typical in rice crops are grown in the greenhouse under paddy rice conditions (water level: 2-3 cm). After the treatment with the compounds according to the invention and the prior-art compounds, the test plants are placed in the greenhouse under optimum growth conditions and kept like this during the entire test. About three weeks after the application, evaluation is carried out by visual scoring of the damage to the plants.
# Stellaria media (STEME) = test: Post-emergence action against harmful plants; conditions: post-emergence application, 80 g of a.i./ha
# Protocol: as §1
# Avena fatua (AVEFA) = test: Post-emergence action against harmful plants; conditions: post-emergence application, 320 g of a.i./ha, Comparative Table 8
# Protocol: as §1
# Galium aparine (GALAP) [8] = test: Pre-emergence action against harmful plants; conditions: pre-emergence application, 320 g of a.i./ha, Comparative Table 7
# Description: (§3) Seeds of monocotyledonous and dicotyledonous harmful plants and seeds of corn, soybean and wheat are placed into sandy loam in cardboard pots and covered with soil. The compounds according to the invention and the prior-art compounds, formulated as wettable powders or emulsion concentrates, are then applied to the surface of the covering soil as an aqueous suspension or emulsion at an application rate of 600 to 800 l of water/ha (converted) in one of the dosages given in tables 1 to 10. After the treatment, the pots are placed in a greenhouse and kept under good growth conditions for the harmful plants and crop plants. Visual scoring of plant or emergence damage is carried out after the test plants have emerged after an experimental period of 3 to 4 weeks.
# Zea mays (corn) (ZEAMX) [9] = test: Pre-emergence damage of crop plants; conditions: pre-emergence application, 320 g of a.i./ha, Comparative Table 7
# Description: as §3
# [10] = tested on: Pharbitis purpureum (PHBPU); test: Post-emergence action against harmful plants; conditions: post-emergence application, 320 g of a.i./ha
# Protocol: as §1
# Setaria viridis (SETVI) = test: Action against harmful plants in the rice test; conditions: post-emergence application, 320 g of a.i./ha, Comparative Table 5
# Protocol: as §2
# [11] = tested on: Triticum aestivum (wheat) (TRZAS); test: Post-emergence damage of crop plants; conditions: post-emergence application, 320 g of a.i./ha, Comparative Table 6
# Protocol: as §1
# [12] = 80 g of a.i./ha, Comparative Table 1
# [13] = post-emergence application, 80 g of a.i./ha, Comparative Table 1
# [14] = 20 g of a.i./ha, Comparative Table 2
# [15] = 80 g of a.i./ha, Comparative Table 3
# [16] = post-emergence application, 80 g of a.i./ha, Comparative Table 3
# [17] = post-emergence application, Comparative Table 8
# [18] = 320 g of a.i./ha, Comparative Table 8
# [19] = 320 g of a.i./ha, Comparative Table 10
# [20] = 320 g of a.i./ha, Comparative Table 9
# [21] = post-emergence application, Comparative Table 9
# [22] = 320 g of a.i./ha, Comparative Table 6
# [23] = post-emergence application, Comparative Table 6
# [24] = 320 g of a.i./ha, Comparative Table 5
# [25] = 80 g of a.i./ha, Comparative Table 4
structure (smiles),measurement,setting,value
CCCNc1c(S(C)(=O)=O)ccc(C(=O)c2c(C3CC3)nn(C)c2O)c1C [No. 3],Herbicidal action DIGSA,[1],90%
same,Herbicidal action VIOTR,Viola tricolor (VIOTR),90%
same,Herbicidal action ECHCG,[2]; [12],90%
same,pest or weed control at 80 g/ha,[3]; [13],70%
same,Damage to the crop plants ZEAMX,Zea mays (corn) (ZEAMX) [4]; [12],30%
CCCCNc1c(S(C)(=O)=O)ccc(C(=O)c2c(C3CC3)nn(C)c2O)c1C [No. 4],Herbicidal action VERPE,Veronica persica (VERPE); [14],60%
same,Herbicidal action GALAP,Galium aparine (GALAP) [5]; [14],80%
same,Damage to the crop plants GLXMA,[6]; [14],0%
same,Damage to the crop plants ORYSA,[7]; [14],0%
C=CCNc1c(S(C)(=O)=O)ccc(C(=O)c2c(C3CC3)nn(C)c2O)c1C [No. 5],Herbicidal action STEME,Stellaria media (STEME); Comparative Table 3,100%
same,Herbicidal action GALAP,Galium aparine (GALAP) [5]; [15],80%
same,pest or weed control at 80 g/ha,[3]; [16],50%
same,Damage to the crop plants ZEAMX,Zea mays (corn) (ZEAMX) [4]; [15],10%
same,Damage to the crop plants GLXMA,[6]; [15],0%
COCCNc1c(S(C)(=O)=O)ccc(C(=O)c2c(C3CC3)nn(C)c2O)c1C [No. 9],Herbicidal action AVEFA,Avena fatua (AVEFA),70%
same,pest or weed control at 320 g/ha,[3]; [17],80%
same,Herbicidal action GALAP,Galium aparine (GALAP) [8],80%
same,Damage to the crop plants ZEAMX,Zea mays (corn) (ZEAMX) [9],0%
same,Damage to the crop plants ZEAMX,Zea mays (corn) (ZEAMX) [4]; [18],0%
same,Damage to the crop plants GLXMA,[6]; [18],20%
CCOCCNc1c(S(C)(=O)=O)ccc(C(=O)c2c(C3CC3)nn(C)c2O)c1C [No. 10],Herbicidal action PHBPU,[10]; Comparative Table 9,100%
same,Herbicidal action PHBPU,[10]; Comparative Table 10,100%
same,Herbicidal action ECHCG,[2]; [19],100%
same,Herbicidal action VERPE,Veronica persica (VERPE); [20],100%
same,Herbicidal action VERPE,Veronica persica (VERPE); [19],100%
same,pest or weed control at 320 g/ha,[3]; [21],100%
same,Herbicidal action MATIN,[3]; post-emergence application,100%
same,Damage to the crop plants ZEAMX,Zea mays (corn) (ZEAMX) [4]; [19],0%
same,Damage to the crop plants GLXMA,[6]; [20],20%
same,Damage to the crop plants GLXMA,[6]; [19],20%
Cc1c(C(=O)c2c(C3CC3)nn(C)c2O)ccc(S(C)(=O)=O)c1N1CCCC1 [No. 14],Herbicidal action ECHCG,[2]; [22],80%
same,pest or weed control at 320 g/ha,[3]; [23],50%
same,Herbicidal action SETVI,Setaria viridis (SETVI),100%
same,Damage to the crop plants TRZAS,[11],0%
same,Damage to the crop plants GLXMA,[6]; [22],10%
same,Damage to the crop plants ORYSA,[7]; [24],10%
Cc1c(C(=O)c2c(C3CC3)nn(C)c2O)ccc(S(C)(=O)=O)c1N1CCCCC1 [No. 15],Herbicidal action STEME,Stellaria media (STEME); Comparative Table 4,70%
same,pest or weed control at 80 g/ha,[3]; post-emergence,60%
same,Damage to the crop plants ZEAMX,Zea mays (corn) (ZEAMX) [4]; [25],0%
CCOCCNc1c(S(C)(=O)=O)ccc(C(=O)c2c(C)nn(C)c2O)c1C [S1],Herbicidal action PHBPU,[10]; Comparative Table 9,90%
same,Herbicidal action VERPE,Veronica persica (VERPE); [20],100%
same,pest or weed control at 320 g/ha,[3]; [21],60%
same,Damage to the crop plants GLXMA,[6]; [20],90%
CCCNc1c(S(C)(=O)=O)ccc(C(=O)c2c(C)nn(C)c2O)c1C [S2],Herbicidal action DIGSA,[1],80%
same,Herbicidal action VIOTR,Viola tricolor (VIOTR),80%
same,Herbicidal action ECHCG,[2]; [12],80%
same,pest or weed control at 80 g/ha,[3]; [13],30%
same,Damage to the crop plants ZEAMX,Zea mays (corn) (ZEAMX) [4]; [12],60%
CCCCNc1c(S(C)(=O)=O)ccc(C(=O)c2c(C)nn(C)c2O)c1C [S3],Herbicidal action VERPE,Veronica persica (VERPE); [14],20%
same,Herbicidal action GALAP,Galium aparine (GALAP) [5]; [14],40%
same,Damage to the crop plants GLXMA,[6]; [14],20%
same,Damage to the crop plants ORYSA,[7]; [14],30%
C=CCNc1c(S(C)(=O)=O)ccc(C(=O)c2c(C)nn(C)c2O)c1C [S4],Herbicidal action STEME,Stellaria media (STEME); Comparative Table 3,100%
same,Herbicidal action GALAP,Galium aparine (GALAP) [5]; [15],80%
same,pest or weed control at 80 g/ha,[3]; [16],30%
same,Damage to the crop plants ZEAMX,Zea mays (corn) (ZEAMX) [4]; [15],30%
same,Damage to the crop plants GLXMA,[6]; [15],50%
Cc1nn(C)c(O)c1C(=O)c1ccc(S(C)(=O)=O)c(N2CCCCC2)c1C [S5],Herbicidal action STEME,Stellaria media (STEME); Comparative Table 4,20%
same,pest or weed control at 80 g/ha,"[3]; post-emergence application, 80 g of a.i./ha, Comparative Table 4",40%
same,Damage to the crop plants ZEAMX,Zea mays (corn) (ZEAMX) [4]; [25],10%
CCn1nc(C)c(C(=O)c2ccc(S(C)(=O)=O)c(N3CCCC3)c2C)c1O [S6],Herbicidal action ECHCG,[2]; [22],50%
same,pest or weed control at 320 g/ha,[3]; [23],0%
same,Herbicidal action SETVI,Setaria viridis (SETVI),90%
same,Damage to the crop plants TRZAS,[11],10%
same,Damage to the crop plants GLXMA,[6]; [22],20%
same,Damage to the crop plants ORYSA,[7]; [24],20%
CCn1nc(C)c(C(=O)c2ccc(S(C)(=O)=O)c(NCCOC)c2C)c1O [S7],Herbicidal action PHBPU,[10]; Comparative Table 10,40%
same,Herbicidal action AVEFA,Avena fatua (AVEFA),50%
same,Herbicidal action ECHCG,[2]; [19],90%
same,Herbicidal action VERPE,Veronica persica (VERPE); [19],90%
same,pest or weed control at 320 g/ha,[3]; [17],70%
same,Herbicidal action MATIN,[3]; post-emergence application,70%
same,Herbicidal action GALAP,Galium aparine (GALAP) [8],70%
same,Damage to the crop plants ZEAMX,Zea mays (corn) (ZEAMX) [9],20%
same,Damage to the crop plants ZEAMX,Zea mays (corn) (ZEAMX) [4]; [18],20%
same,Damage to the crop plants ZEAMX,Zea mays (corn) (ZEAMX) [4]; [19],20%
same,Damage to the crop plants GLXMA,[6]; [18],60%
same,Damage to the crop plants GLXMA,[6]; [19],60%
